We go through six molecules from US9566312B2, “Cyclic peptides and use as medicines” (priority 2012, dated 2017).

Starred links: 1 amine or outer side, 2 acyl side, 3 side chain; linkers in the order of their positions; H or OH if unused. Non-standard residues stand in square brackets, D forms with d. Residues, ends and D or L forms follow the SMILES beside them. MeBmt = C/C=C/C[C@@H](C)[C@@H](O)[C@H](NC)C(=O)O; X2 = COCC[C@@H](C)[C@@H](C(=O)[*:2])N(C)[*:1]; NMeL = CN[C@@H](CC(C)C)C(=O)O; NMeV = CN[C@H](C(=O)O)C(C)C; dNMeA = CN[C@H](C)C(=O)O; Abu = CC[C@H](N)C(=O)O Some results are limits rather than exact numbers.

One experiment has as its system HBV in HepG2215 cells. The following applies: cited from earlier work.
The target of another experiment is cyclophilin A (CypA) (Homo sapiens (Human), UniProt P62937). Put plainly: Inhibitor binding to cyclophilin proteins by SPR, CypA.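 Note: Single-cycle kinetics on a Biacore T200, compound injected at several concentrations for 1 min each at 50 µL/min, then 10 min dissociation, in HEPES pH 7.4 buffer with 3% DMSO.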 Set-up: unit not given here. The following applies: 1:1 binding model. (SPR reads the build-up and loss of mass on a sensor chip optically.)
cyclophilin A (CypA), sequence (P62937 whole entry): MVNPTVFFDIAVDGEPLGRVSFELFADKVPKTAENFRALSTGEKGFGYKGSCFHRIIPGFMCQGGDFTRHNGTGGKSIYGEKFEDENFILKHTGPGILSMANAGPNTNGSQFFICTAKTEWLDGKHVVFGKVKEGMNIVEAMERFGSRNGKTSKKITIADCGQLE
The target in a further experiment is cyclophilin B (CypB) (Homo sapiens (Human), UniProt P23284). Description: Inhibitor binding to cyclophilin proteins by SPR, CypB. Also noted: unit not given here. The following applies: 1:1 binding model. A digest of the protocol:
(§1)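 A 1:1 model fitted to single-cycle kinetic SPR data gave association and dissociation rates and KD. Compound series injected for 1 min each at 50 μL/min, then 10 min dissociation. Running buffer HEPES pH 7.4 with NaCl, P20 and 3% DMSO; target protein was biotinylated avi-tagged cyclophilin on a CAPture surface.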

In another experiment the target is CypF (Homo sapiens (Human), UniProt P30405). Description: Inhibitor binding to cyclophilin proteins by SPR, CypF. The following applies: 1:1 binding model. The gist of the method:
as §1

The test system of experiment [1] is genotype 1b subgenomic HCV replicon in Huh7.5 cells. Type of experiment: cell-based, hepatitis C virus. Conditions: genotype 1b replicon, 72 h incubation; read-out: RPLN-1b IC50. The gist of the method: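 Replicon inhibition read as renilla luciferase signal versus DMSO controls after 72 h incubation, in Huh7.5 cells harbouring a genotype 1b subgenomic replicon; medium phenol red-free DMEM lacking G418. CC50 determined in parallel via Cell Titer-Glo.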

Experiment [2] relates to peripheral blood mononuclear cells (PBMC). Description: Anti-proliferative or immunosuppressive activity, BrdU incorporation in PHA-stimulated PBMC. In kind it is cell-based. Conditions: PHA 3 μg/ml, 60 hour compound treatment; read-out: EMV PBMC IC50. A digest of the protocol: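 BrdU ELISA read-out of DNA synthesis in freshly isolated PBMCs (two donors, 30,000 cells/well, X-VIVO 15). T-cell proliferation triggered with phytohemagglutinin at 3 μg/ml.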
Background: Uptake of a labelled nucleoside into DNA is a usual measure of proliferation.

The next experiment deals with Human MRP2 (Homo sapiens (Human), UniProt Q92887). Description: MRP2 transporter vesicle assay. In kind it is in vitro ADME. As for the experimental part:
Method 4: Measuring Hepatic Transporter Interactions […] […] MRP2 Assay: Human MRP2 inhibition was tested using a BD Gentest Transporter Vesicle Assay Kit. Inside-out vesicles were prepared from insect Sf9 cells infected with baculovirus expressing hMRP2. […] The percent remaining of ATP dependent uptake activity was calculated as uptake activity in the presence of inhibitor divided by the uptake activity in the absence of inhibitor.

For experiment [3], the target named is organic anion transporting polypeptide 1B1 (OATP1B1) (Homo sapiens (Human), UniProt Q9Y6L6). Put plainly: OATP assay in CHO-OATP1B1 cells.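 Note: inhibition of probe substrate uptake into the cells, ten minutes exposure, accumulated substrate read by fluorescence once cells were lysed.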
organic anion transporting polypeptide 1B1 (OATP1B1), sequence (Q9Y6L6 whole entry): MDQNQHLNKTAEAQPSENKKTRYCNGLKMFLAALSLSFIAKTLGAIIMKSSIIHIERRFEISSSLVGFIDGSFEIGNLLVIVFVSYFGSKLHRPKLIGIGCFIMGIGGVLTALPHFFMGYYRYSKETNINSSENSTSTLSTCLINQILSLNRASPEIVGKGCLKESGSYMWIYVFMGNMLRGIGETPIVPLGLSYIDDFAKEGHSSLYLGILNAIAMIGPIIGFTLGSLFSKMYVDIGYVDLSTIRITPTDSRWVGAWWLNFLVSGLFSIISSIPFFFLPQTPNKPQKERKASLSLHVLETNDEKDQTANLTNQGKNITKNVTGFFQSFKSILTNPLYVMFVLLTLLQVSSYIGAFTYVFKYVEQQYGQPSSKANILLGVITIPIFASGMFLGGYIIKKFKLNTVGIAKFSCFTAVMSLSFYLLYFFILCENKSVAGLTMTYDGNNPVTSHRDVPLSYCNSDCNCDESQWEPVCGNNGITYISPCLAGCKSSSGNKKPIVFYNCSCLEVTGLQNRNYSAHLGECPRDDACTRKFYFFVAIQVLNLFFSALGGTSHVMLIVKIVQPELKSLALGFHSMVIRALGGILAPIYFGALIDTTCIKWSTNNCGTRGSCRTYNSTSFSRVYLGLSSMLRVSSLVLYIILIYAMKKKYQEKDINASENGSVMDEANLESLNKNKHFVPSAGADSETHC
The target in the next experiment is CYP3A4 (Homo sapiens (Human), UniProt P08684). Put plainly: Time-dependent inhibition of CYP3A4.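 Note: Two-step in vitro assay, kobs derived from residual CYP3A4 activity versus preincubation time per concentration, then kinact and KI by nonlinear fit of kobs against concentration.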
CYP3A4, sequence (P08684 whole entry): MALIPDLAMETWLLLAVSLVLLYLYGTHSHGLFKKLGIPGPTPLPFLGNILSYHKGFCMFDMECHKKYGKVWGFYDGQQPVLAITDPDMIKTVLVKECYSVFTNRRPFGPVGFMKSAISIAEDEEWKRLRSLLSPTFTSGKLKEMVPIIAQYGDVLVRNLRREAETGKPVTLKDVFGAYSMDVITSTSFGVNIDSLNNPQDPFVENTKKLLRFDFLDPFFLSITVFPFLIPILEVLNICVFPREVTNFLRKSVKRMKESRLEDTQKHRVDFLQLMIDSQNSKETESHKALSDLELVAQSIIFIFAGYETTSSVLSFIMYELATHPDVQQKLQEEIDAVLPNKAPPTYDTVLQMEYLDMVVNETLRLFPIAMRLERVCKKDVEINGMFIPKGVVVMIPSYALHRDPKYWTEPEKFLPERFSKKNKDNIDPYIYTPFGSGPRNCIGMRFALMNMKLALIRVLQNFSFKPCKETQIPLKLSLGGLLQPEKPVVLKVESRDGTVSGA
Description: In order to determine whether the compounds of the present invention interact with hepatic transporters, experiments were carried out that compared the concentration-dependent inhibition toward the organic anion transporting polypeptide 1B1 (OATP1B1) and the multidrug resistance associated protein 2 (MRP2).
The cells were cultured in DMEM/F12 +10% FBS+2 mM Ala-Gln+1% Pen-Strep for a period of two days, and the media was changed one day post-seeding. Prior to the assay, media was aspirated and were washed −3× with HBSS+10 mM HEPES and the solution was equilibrated for 15 min in HBSS+10 mM HEPES. Solutions containing the inhibitor were prepared in HBSS+10 mM HEPES (up to 1% DMSO). […] After 10 min, the substrate or substrate/inhibitor solution was aspirated and the cells were washed 3× with HBSS+10 mM HEPES. The amount of the transported probe substrate was determined by fluorescent photometry after cell lysis, and the IC50 was derived from the concentration-response curve.
The next experiment deals with hepatitis C virus. Conditions: patients, 1200 mg twice daily; cited from earlier work.
The subject of a further experiment is HCV replicon. Conditions: cited from earlier work.

cyclophilin B (CypB), sequence (P23284 34-216): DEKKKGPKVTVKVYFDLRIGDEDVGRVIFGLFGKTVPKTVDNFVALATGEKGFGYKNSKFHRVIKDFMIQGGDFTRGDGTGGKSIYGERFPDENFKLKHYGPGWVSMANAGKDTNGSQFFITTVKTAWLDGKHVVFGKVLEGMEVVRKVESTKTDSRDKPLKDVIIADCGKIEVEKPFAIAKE
Human MRP2, sequence (Q92887 whole entry): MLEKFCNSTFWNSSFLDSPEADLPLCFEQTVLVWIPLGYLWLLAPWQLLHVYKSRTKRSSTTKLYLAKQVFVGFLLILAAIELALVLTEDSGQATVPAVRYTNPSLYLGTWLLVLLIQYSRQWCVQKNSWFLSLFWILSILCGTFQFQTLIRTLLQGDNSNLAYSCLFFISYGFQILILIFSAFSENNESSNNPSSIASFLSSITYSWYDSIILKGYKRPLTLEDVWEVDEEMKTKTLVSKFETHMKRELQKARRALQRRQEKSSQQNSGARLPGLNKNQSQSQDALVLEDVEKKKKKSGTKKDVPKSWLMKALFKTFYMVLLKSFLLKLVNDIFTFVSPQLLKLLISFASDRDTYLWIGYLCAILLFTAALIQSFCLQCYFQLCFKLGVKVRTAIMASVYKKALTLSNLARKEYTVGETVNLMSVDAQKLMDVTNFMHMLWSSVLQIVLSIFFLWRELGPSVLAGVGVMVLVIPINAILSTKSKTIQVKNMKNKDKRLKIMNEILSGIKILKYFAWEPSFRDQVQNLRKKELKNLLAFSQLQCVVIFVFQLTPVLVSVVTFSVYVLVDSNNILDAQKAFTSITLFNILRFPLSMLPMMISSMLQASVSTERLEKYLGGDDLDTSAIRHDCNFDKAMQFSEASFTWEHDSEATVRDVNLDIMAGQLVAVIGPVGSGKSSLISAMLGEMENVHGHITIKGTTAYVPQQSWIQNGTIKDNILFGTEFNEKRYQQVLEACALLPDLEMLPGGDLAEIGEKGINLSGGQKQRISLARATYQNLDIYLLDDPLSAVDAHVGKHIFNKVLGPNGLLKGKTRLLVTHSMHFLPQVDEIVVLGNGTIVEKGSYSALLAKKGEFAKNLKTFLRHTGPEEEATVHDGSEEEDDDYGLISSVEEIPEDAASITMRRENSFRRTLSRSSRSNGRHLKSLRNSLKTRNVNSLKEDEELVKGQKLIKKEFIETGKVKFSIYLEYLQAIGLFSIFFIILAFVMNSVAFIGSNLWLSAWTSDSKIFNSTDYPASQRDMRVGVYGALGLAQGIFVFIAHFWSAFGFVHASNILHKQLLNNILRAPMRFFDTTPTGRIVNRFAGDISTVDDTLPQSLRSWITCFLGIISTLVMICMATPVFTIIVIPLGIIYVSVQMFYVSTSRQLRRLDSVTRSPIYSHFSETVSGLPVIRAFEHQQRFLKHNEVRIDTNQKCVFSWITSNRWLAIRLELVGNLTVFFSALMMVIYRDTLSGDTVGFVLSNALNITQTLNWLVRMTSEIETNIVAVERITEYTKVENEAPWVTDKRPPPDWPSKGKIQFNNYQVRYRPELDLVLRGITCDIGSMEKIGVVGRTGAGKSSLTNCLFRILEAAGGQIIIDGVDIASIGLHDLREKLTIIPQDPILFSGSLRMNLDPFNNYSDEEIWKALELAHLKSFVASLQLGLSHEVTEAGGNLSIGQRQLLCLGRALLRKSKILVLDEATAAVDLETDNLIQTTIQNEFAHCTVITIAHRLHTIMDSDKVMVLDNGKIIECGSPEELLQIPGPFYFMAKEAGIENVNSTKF
CypF, sequence (P30405 30-207): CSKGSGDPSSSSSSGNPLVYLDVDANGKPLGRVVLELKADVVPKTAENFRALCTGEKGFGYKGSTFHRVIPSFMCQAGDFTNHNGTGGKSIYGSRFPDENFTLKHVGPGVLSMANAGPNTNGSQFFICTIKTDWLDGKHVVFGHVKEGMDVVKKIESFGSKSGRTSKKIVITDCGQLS
Description for CYP3A4: Method 5: Measuring Time-Dependent Inhibition of CYP3A4
The CYP3A4 time dependent inhibition potential of various inhibitors was determined by a two step in vitro assay. […] The inactivation rate constant (kobs) was obtained by plotting the activity remaining over pre-incubation time for each concentration of compound. The maximal inactivation rate (kinact) and the inactivation potency (KI) were calculated by non linear regression analysis of the inactivation rate constant (kobs) versus compound concentrations [I] curve according to the equation kobs=[kinact·[I]]/[KI+[I]]
Description for cyclophilin A (CypA): Binding of inhibitors to expressed cyclophilins was determined using surface plasmon resonance (SPR) experiments. Briefly, avi-tagged cyclophilin proteins with mono-biotinylation were immobilized onto a Biotin CAPture chip (GE Healthcare, cat. #28920234). SPR experiments were carried out on an upgraded Biacore T200 system using a running buffer containing the inhibitor, 10 mM HEPES, pH 7.4, 150 mM NaCl, 0.05% P20, and 3% DMSO. Single-cycle kinetics measurements were used to study the interactions between cyclophilin inhibitors and different cyclophlins. Accordingly, compound at various concentrations was injected to the flow cells with a contact time of 1 min each at a flow rate of 50 μL/min. The final dissociation phase lasts for 10 min following the sample injection. Data was analyzed using Biacore T200 Evaluation Software Version 1.0 and a 1:1 binding model was applied to fit the data to obtain kon, koff, and KD.

Regarding `C/C=C/C[C@@H](C)[C@@H](O)[C@H]1C(=O)N[C@@H](CC)C(=O)N(C)CC(=O)N(C)[C@@H]([C@@H](C)CC)C(=O)N[C@@H](C(C)C)C(=O)N(C)[C@@H](CC(C)C)C(=O)N[C@@H](C)C(=O)N[C@H](C)C(=O)N(C)[C@@H](CC(C)C)C(=O)N(C)[C@@H](CC(C)C)C(=O)N(C)[C@@H](C(C)C)C(=O)N1C` [NIM811], the “reduction of HBsAg secretion from cells compared with controls” value in the experiment on HBV in HepG2215 cells is listed as “about 50%”.

Usually IC50 stands for the concentration that gives 50% inhibition. `C/C=C/C[C@@H](C)[C@@H](O)[C@H]1C(=O)N[C@@H](CC)C(=O)N(C)[C@H](C)C(=O)N(C)[C@@H]([C@H](C)CCOC)C(=O)N[C@@H](C(C)C)C(=O)N(C)[C@@H](CC(C)C)C(=O)N[C@@H](C)C(=O)N[C@H](C)C(=O)N(C)[C@@H](CC(C)C)C(=O)N(C)[C@@H](CC(C)C)C(=O)N(C)[C@@H](C(C)C)C(=O)N1C` [Compound 2.13, 3-[D-Ala]-4-[(2S,3R)-5-methoxy-3-methyl-2-(methylamino)pentanoyl]-cyclosporin] (cyclo(A[dA][NMeL][NMeL][NMeV][MeBmt][Abu][dNMeA][X2]V[NMeL])): the “CypA Kd” value on cyclophilin A (CypA) is on record as 1.7. For the same molecule, the “CypB Kd” value at cyclophilin B (CypB) was 0.8. This molecule also returned a CypF Kd on CypF of 0.8 nM. For the same molecule, the 50% inhibitory concentration (IC50) in experiment [1] came to 41 nM; in experiment [2] it was 2600 nM; against Human MRP2, 13000 nM; in experiment [3], 2300 nM. For the same molecule, on CYP3A4, the Ki was over 50000 nM.

For the molecule `C/C=C/C[C@@H](C)[C@@H](O)[C@H]1C(=O)N[C@@H](CC)C(=O)N(C)[C@H](C)C(=O)N(C)[C@@H]([C@H](C)COC)C(=O)N[C@@H](C(C)C)C(=O)N(C)[C@@H](CC(C)C)C(=O)N[C@@H](C)C(=O)N[C@H](C)C(=O)N(C)[C@@H](CC(C)C)C(=O)N(C)[C@@H](CC(C)C)C(=O)N(C)[C@@H](C(C)C)C(=O)N1C` [Compound 2.1, 3-[D-Ala]-4-[(2S,3S)-4-methoxy-3-methyl-2-(methylamino)butanoyl]-cyclosporin], the “CypA Kd” value on cyclophilin A (CypA) is 2.05. For the same molecule, the “CypB Kd” value at cyclophilin B (CypB) is on record as 1.45. In addition, the CypF Kd at CypF amounted to 1.3 nM. In addition, the IC50 in experiment [1] turned out to be 29 nM; in [2], 10600 nM; against Human MRP2 it was 14000 nM; in [3], 5100 nM. In addition, on CYP3A4, the Ki is over 50000 nM.

Take `C/C=C/C[C@@H](C)[C@@H](O)[C@H]1C(=O)N[C@@H](CC)C(=O)N(C)[C@H](C)C(=O)N(CC)[C@@H](C(C)C)C(=O)N[C@@H](C(C)C)C(=O)N(C)[C@@H](CC(C)C)C(=O)N[C@@H](C)C(=O)N[C@H](C)C(=O)N(C)[C@@H](CC(C)C)C(=O)N(C)[C@@H](CC(C)C)C(=O)N(C)[C@@H](C(C)C)C(=O)N1C` [DEBIO-025]: the “mean hepatitis C load” value in the experiment on hepatitis C virus is recorded as “significantly decreased”.

As to `C=CC[C@@H]1/C=C(\C)C[C@H](C)C[C@H](OC)[C@H]2O[C@@](O)(C(=O)C(=O)N3CCCC[C@H]3C(=O)O[C@H](/C(C)=C/[C@@H]3CC[C@@H](O)[C@H](OC)C3)[C@H](C)[C@@H](O)CC1=O)[C@H](C)C[C@@H]2OC` [FK506], the “effect on HCV replication” value in the experiment on HCV replicon is on record as “did not have significant effect”.

In the case of `C/C=C/C[C@@H](C)[C@@H](O)[C@H]1C(=O)N[C@@H](CC)C(=O)N(C)[C@H](C)C(=O)N(CC)[C@@H](C(C)C)C(=O)N[C@@H](C(C)C)C(=O)N(C)[C@@H](CC(C)C)C(=O)N[C@@H](C)C(=O)N[C@H](C)C(=O)N(C)[C@@H](CC(C)C)C(=O)N(C)[C@@H](CC(C)C)C(=O)N(C)[C@@H](C(C)C)C(=O)N1C` [alisporivir], the “reduction in intracellular HBV DNA levels” value in the experiment with HBV in HepG2215 cells (5.0 mcg/mL, 72 hours) is reported as 10 fold. In addition, the “reduction of HBsAg secretion from cells compared with controls” value in the experiment with HBV in HepG2215 cells was “about 50%”.
